Values after ≈ are worked out from the molar mass of the structure shown. Read-outs that look alike come from different tables or passages of the source.
Key:
[1] = Competitive suspension experiments; type: physicochemical; details: for XRPD result (room temperature): 25° C.
Method: Test Example 1: Competitive Suspension Experiments
Equal amounts (6 mg) of the crystalline form I sample of the compound of formula B obtained in Example 1, the crystalline form II sample of the compound of formula B obtained in Example 22, and the crystalline form III sample of the compound of formula B obtained in Example 33 were mixed. The resulting mixture was separately stirred at room temperature (25° C.) and at a high temperature (50° C.) for 24 h, 2 days, and 7 days in the following solvents, and the remaining solids were subjected to the XRPD test.

Solid stability study = type: physicochemical; details: 7 days
Method: Test Example 3: Solid Stability Study
The crystalline form I (5 mg) obtained in Example 1 and the crystalline form II (5 mg) obtained in Example 22 were weighed into sample bottles; the samples were subjected to solid-state stability studies after being placed under the conditions of 60° C. (closed) and 40° C./75% RH (open); and sampling was performed on day 7 for XRPD characterization.

Solubility test = type: physicochemical; details: 200 rpm; for FeSSIF Solubility: FeSSIF (pH about 5.00); for solubility at 24 h: 37 °C, thermodynamic from solid
Method: Test Example 2: Solubility Test
The crystalline form I sample (5 mg) obtained in Example 1 and the crystalline form II sample (5 mg) obtained in Example 22 were added to a sample bottle, and 1 mL of SGF (simulated gastric fluid), FaSSIF (fasted state simulated intestinal fluid), FeSSIF (fed state simulated intestinal fluid), and water were separately added. The resulting suspensions were shaken at 37° C. at a rotation speed of 200 rpm for 24 h and filtered. The resulting filtrates were subjected to the concentration test, and the resulting solids were subjected to XRPD characterization.

Grinding stability study = type: physicochemical
[2] = Dynamic vapor sorption/desorption (DVS) analysis; type: physicochemical
Method: 2. Dynamic Vapor Sorption/Desorption (DVS) Analysis
Instrument: DVS Intrinsic plus (SMS, UK).
Method: a sample is placed in a tared sample basket, the weight of the sample is automatically measured, and the sample is dried at 40° C./0% RH until dm/dt is less than 0.002% and then cooled to 25° C.

[3] = Pharmacokinetic study in rats; type: in vivo, SD rats; details: rat
Excerpt: Test Example 6: Pharmacokinetic Study of Compound of Formula B in Rats
Assay drug: the compound of formula B obtained in Preparation Example 1.
Instrument: LC-MS/MS-13 (TQ5500, Triple quad), with the operation software of Xcalibur2.0.7 (Thermo Fisher Scientific, USA); LC-10ADvp liquid chromatography system (Shimadzu, Japan); Shimadzu LC-20AD liquid chromatography pump; Shimadzu CBM-20A system controller; Shimadzu CTO-20A column oven; and SIL-20AC autosampler (Shimadzu, Japan). Chromatographic column: Agilent Zorbax SB-CN 3.5 u 100×2.1 mm; column temperature: 40° C.; mobile phase A: 0.1% aqueous formic acid solution; mobile phase B: a 0.1% solution of formic acid in acetonitrile; flow rate: 0.60 mL/min. The gradient elution was performed as follows: from 0 to 0.5 min, the mobile phase B was increased from 1% to 90%; from 0.5 to 1.2 min, 90% of the mobile phase B was maintained; starting from 1.21 min, the mobile phase B was changed back to 1%; and elution was stopped at 1.60 min.
Animals: 6 male SD rats were supplied by Shanghai Sippe-Bk Lab Animal Co., Ltd. The body weight range was 180-220 g. After purchase, the rats were bred in the laboratory of the experimental animal center for 2 days for later use. The rats were fasted 10-14 h before administration and 4 h after administration, and given ad libitum access to water during the assay. The rats were randomly divided into two groups, with 3 rats in each group. One group was intravenously injected, and the other group was intragastrically administered.
Preparation of intragastric administration solution: the compound of formula B (4.85 mg) was precisely weighed out, and a mixed aqueous solution (9.70 mL) containing 0.5% methylcellulose and 0.4% Tween-80 was added, followed by sonication at room temperature to prepare a 0.5 mg/mL suspension. Preparation of intravenous injection solution: the compound of formula B (2.79 mg) was precisely weighed out, and DMSO (21 μL), PEG200 (2.79 mL), and normal saline (4.164 mL) were added to prepare a 0.4 mg/mL solution.
Blood was collected in the intragastric administration group about 0.25 h before administration and 0.25 h, 0.5 h, 1 h, 1.5 h, 2 h, 4 h, 6 h, 8 h, 12 h, and 24 h after administration. Blood was collected in the intravenous administration group about 0.25 h before administration and 0.083 h, 0.25 h, 0.5 h, 0.75 h, 1 h, 2 h, 4 h, 8 h, 12 h, and 24 h after administration. The blood was collected from the jugular vein or other venipuncture at 0.25 mL/time point and anticoagulated with EDTA-K2 or EDTA-K3. The collected blood was placed on the ice. After the blood samples were collected, plasma was separated by centrifugation (centrifugation conditions: 6800 g/min, 6 min, 2-8° C.). The collected plasma samples were stored in a refrigerator at −80° C. for testing prior to analysis.
The compound of the formula B was accurately weighed out and formulated into different concentrations, and quantitative analysis was performed on a mass spectrometer to establish a standard curve. The concentration of the compound of formula B in the plasma described above was then measured to obtain the concentrations of the compound of formula B at different time points. All the measured data were collected and processed by relevant software, and pharmacokinetic parameters (mainly including kinetic parameters Tmax, T1/2, Cmax, AUC0-t, etc.) were calculated by adopting a statistical moment method. […]

[4] = Dichloromethane/acetonitrile (V:V = 1:2), 0.5 mL, 24 h
[5] = Dichloromethane/acetonitrile (V:V = 1:2), 0.5 mL, 7 days
[6] = Dichloromethane/ethanol (V:V = 1:4), 0.5 mL, 24 h
[7] = Dichloromethane/ethanol (V:V = 1:4), 0.5 mL, 7 days
[8] = N,N-Dimethylformamide, 0.5 mL, 24 h
[9] = N,N-Dimethylformamide, 0.5 mL, 7 days
[10] = Water/acetone (V:V = 1:1), 1 mL, 2 days
[11] = Water/acetone (V:V = 2:8), 1 mL, 2 days
[12] = Water/acetone (V:V = 5:95), 1 mL, 2 days
[13] = male, SD, plasma, iv, intravenously injected, 2.0 mg/kg
[14] = male, SD, plasma, po, intragastrically administered, 5 mg/kg

## N#Cc1cnc(NC(=O)N2CCCc3cc(CN4CCN5CCC[C@H]5C4=O)c(C=O)nc32)cc1NC1CC1
[1]; [4]
  XRPD result (room temperature): form I + II
  XRPD result (50° C.): form I + II
[1]; [5]
  XRPD result (room temperature): form I
  XRPD result (50° C.): form I
[1]; [6]
  XRPD result (room temperature): form I + II
  XRPD result (50° C.): form I + II
[1]; [7]
  XRPD result (room temperature): form I
  XRPD result (50° C.): form I
[1]; [8]
  XRPD result (room temperature): form I + II
  XRPD result (50° C.): form I + II
[1]; [9]
  XRPD result (room temperature): form I
  XRPD result (50° C.): form I
[1]; Water, 0.5 mL, 7 days
  XRPD result (room temperature): form I + II
  XRPD result (50° C.): form I + II
[1]; [10]
  XRPD result (room temperature): form I + II
  XRPD result (50° C.): form I
[1]; [11]
  XRPD result (room temperature): form I + II
  XRPD result (50° C.): form I
[1]; [12]
  XRPD result (room temperature): form I + II
  XRPD result (50° C.): form I

## N#Cc1cnc(NC(=O)N2CCCc3cc(CN4CCN5CCC[C@H]5C4=O)c(C=O)nc32)cc1NC1CC1 [Crystalline form II]
Solid stability study
  XRPD result at 40° C./75% RH (open): Unchanged
  XRPD result at 60° C. (closed): Unchanged
Solubility test; FaSSIF (pH about 6.50), 37° C., 24 h
  FaSSIF Solubility: 19 µg/mL
Solubility test; 37° C., 24 h
  FeSSIF Solubility: 5.5 µg/mL
  Water Solubility: 1.5 µg/mL
Solubility test; SGF (pH about 1.20), 37° C., 24 h
  SGF Solubility: >5000 µg/mL

## N#Cc1cnc(NC(=O)N2CCCc3cc(CN4CCN5CCC[C@H]5C4=O)c(C=O)nc32)cc1NC1CC1 [Crystalline form I]
Solid stability study
  XRPD result at 40° C./75% RH (open): Unchanged
  XRPD result at 60° C. (closed): Unchanged
Grinding stability study; Solid grinding, 2 min
  Grinding stability result (crystalline form, XRPD): unchanged
Grinding stability study; Solid grinding, 5 min
  Grinding stability result (crystalline form, XRPD): unchanged, but the crystallinity
  Grinding stability result (crystallinity, XRPD): became worse
Grinding stability study; Solvent grinding, Acetone
  Grinding stability result (crystalline form, XRPD): unchanged
Grinding stability study; Solvent grinding, Acetonitrile
  Grinding stability result (crystalline form, XRPD): unchanged
Grinding stability study; Solvent grinding, Dichloromethane
  Grinding stability result (crystalline form, XRPD): unchanged
Grinding stability study; Solvent grinding, Ethanol
  Grinding stability result (crystalline form, XRPD): unchanged
Grinding stability study; Solvent grinding, Methanol
  Grinding stability result (crystalline form, XRPD): unchanged
[2]; DVS, 0-90% RH, 25° C.
  hygroscopic weight gain: about 0.24%
  hygroscopicity: almost non-hygroscopic
[2]; XRPD after DVS
  crystalline form of the sample after the DVS test: not changed
Solubility test; FaSSIF (fasted state simulated intestinal fluid), pH 6.5, fassif, FaSSIF (pH about 6.50), read-out: FaSSIF Solubility
  solubility at 24 h: 26 µg/mL (≈ 50.5 µM)
Solubility test; 37° C., 24 h
  FeSSIF Solubility: 14 µg/mL
  Water Solubility: 3.1 µg/mL
Solubility test; SGF (simulated gastric fluid), pH 1.2, simulated gastric fluid, SGF (pH about 1.20), read-out: SGF Solubility
  solubility at 24 h: > 5000 µg/mL

## N#Cc1cnc(NC(=O)N2CCCc3cc(CN4CCN5CCC[C@@H]5C4=O)c(C=O)nc32)cc1NC1CC1 [compound of formula C]
[3]; [13]
  AUC(0-t): 2550 ng·h/mL
  clearance: 13.4 mL/min/kg
  half-life: 1.23 h
[3]; male, SD, plasma, oral, intragastric 5 mg/kg vs intravenous 2.0 mg/kg, read-out: absolute bioavailability
  bioavailability: 35.3%
[3]; [14]
  AUC(0-t): 2250 ng·h/mL
  Cmax: 597 ng/mL
  half-life: 1.24 h
[3]; male, SD, plasma, po, intragastrically administered, 5 mg/kg, read-out: time at which the plasma concentration reached the peak value (Tmax)
  Tmax: 2.5 h
[3]; intravenously injected, 2.0 mg/kg
  volume distribution: 0.973 L/kg

Source: patent publication US20250282797A1, “CRYSTALLINE FORM OF FGFR4 INHIBITOR AND USE THEREOF” (CSPC ZHONGQI PHARMACEUTICAL TECHNOLOGY (SHIJIAZHUANG) CO., …, priority 2022, published 2025)
